For experiment [1], the target named is T1, HIF-2α (Homo sapiens, UniProt Q99814). Briefly: HIF-2α Luciferase Reporter Assay (serum free) in HIF-Luc-786-0 cells. It counts as cell-based. The conditions noted are these: Opti-MEM, 786-0 reporter cells, 20 hours incubation. The essentials:
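786-0 cells stably transduced with HIF luciferase reporter, 20,000 cells/well in serum-free Opti-MEM, compounds (50 uM downward, 1% DMSO) 20 h at 37 °C. ONE-Glo luminescence normalized to DMSO and no-cell controls; IC50 from four-parameter fit.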

The target in experiment [2] is T1, HIF-2α. Briefly: HIF-2α Luciferase Reporter Assay (serum), HRE-luciferase 786-0 cells in 100% human serum. It counts as cell-based. The settings on record: for IC50: 100% human serum, 786-0 reporter cells, overnight incubation, read-out: Serum Potency; for Serum Shift (approximate): ratio of IC50 in 100% serum to IC50 in serum free conditions. A digest of the protocol: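 786-0 cells stably expressing an HRE-luciferase reporter were plated and rested 3 h. They were then treated overnight at 37 °C with compound diluted in 100% human serum. Serum was replaced with Opti-MEM, ONE-Glo luminescence was read, and IC50 came from a 4-parameter logistic fit.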

T1 sequence (Q99814 whole entry): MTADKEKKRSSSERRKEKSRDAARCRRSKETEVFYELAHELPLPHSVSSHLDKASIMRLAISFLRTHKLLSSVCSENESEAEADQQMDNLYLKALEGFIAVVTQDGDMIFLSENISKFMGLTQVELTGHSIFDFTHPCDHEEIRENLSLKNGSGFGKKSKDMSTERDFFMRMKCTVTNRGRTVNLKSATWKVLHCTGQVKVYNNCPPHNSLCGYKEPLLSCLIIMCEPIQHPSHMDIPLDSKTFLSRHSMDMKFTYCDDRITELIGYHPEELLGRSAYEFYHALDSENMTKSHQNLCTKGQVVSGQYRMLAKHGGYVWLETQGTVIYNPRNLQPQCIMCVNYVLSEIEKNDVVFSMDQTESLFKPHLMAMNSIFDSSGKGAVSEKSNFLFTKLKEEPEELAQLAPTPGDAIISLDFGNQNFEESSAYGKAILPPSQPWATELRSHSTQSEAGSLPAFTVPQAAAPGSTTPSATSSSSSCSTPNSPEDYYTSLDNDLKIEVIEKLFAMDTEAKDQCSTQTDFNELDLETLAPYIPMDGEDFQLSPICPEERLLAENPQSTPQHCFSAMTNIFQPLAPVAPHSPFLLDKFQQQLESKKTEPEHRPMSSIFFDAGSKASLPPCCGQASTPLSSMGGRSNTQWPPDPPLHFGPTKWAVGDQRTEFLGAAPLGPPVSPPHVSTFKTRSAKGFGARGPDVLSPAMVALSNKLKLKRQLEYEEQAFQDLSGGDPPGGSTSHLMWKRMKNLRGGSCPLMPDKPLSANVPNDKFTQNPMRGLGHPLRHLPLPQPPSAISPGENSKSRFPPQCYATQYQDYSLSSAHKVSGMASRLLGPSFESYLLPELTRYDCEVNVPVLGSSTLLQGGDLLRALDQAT

Consider `O[C@H]1c2c(C(F)(F)F)nn([C@H]3CC[C@H](F)[C@H](F)C3)c2[C@@H](F)C1(F)F` [Example 157, (4S,6R)-1-[(1S,3R,4S)-3,4-difluorocyclohexyl]-5,5,6-trifluoro-3-(trifluoromethyl)-4,6-dihydrocyclopenta[c]pyrazol-4-ol], for which the IC50 against HIF-2α [1] was less than 100 nM. Further, on HIF-2α [2], the IC50 was less than 100 nM and the “Serum Shift (approximate)” value is on record as 3.

Turning to `CCO[C@H](CCn1nc(C(F)(F)F)c2c1CC(F)(F)[C@H]2O)C(F)(F)F` [Example 101, (4S)-1-[(3R)-3-ethoxy-4,4,4-trifluorobutyl]-5,5-difluoro-3-(trifluoromethyl)-4,6-dihydrocyclopenta[c]pyrazol-4-ol], the IC50 is less than 100 nM against HIF-2α [1] and more than 1000 nM on HIF-2α [2]. In addition, on HIF-2α [2], the “Serum Shift (approximate)” value came to 11.

As for `O[C@H]1c2c(C(F)(F)F)nn(CCc3ccoc3)c2CC1(F)F` [Example 78, (4S)-5,5-difluoro-1-[2-(furan-3-yl)ethyl]-3-(trifluoromethyl)-1H,4H,5H,6H-cyclopenta[c]pyrazol-4-ol], the figures for the IC50 at HIF-2α [1] and on HIF-2α [2] were less than 100 nM and more than 1000 nM, respectively. Also, the “Serum Shift (approximate)” value at HIF-2α [2] is given as 8.

On HIF-2α [1], `O[C@H]1c2c(C(F)(F)F)nn(CCCOC(F)(F)F)c2CCC1(F)F` [Example 30, (4S)-5,5-difluoro-1-[3-(trifluoromethoxy)propyl]-3-(trifluoromethyl)-6,7-dihydro-4H-indazol-4-ol] came in with an IC50 of less than 100 nM. Further, at HIF-2α [2], the IC50 lay in the range of 100 to 1000 nM and the “Serum Shift (approximate)” value stood at 8.

Take `CS(=O)(=O)CCn1nc(C(F)(F)F)c2c1CC(F)(F)[C@H]2O` [Example 56, (4S)-5,5-difluoro-1-(2-methylsulfonylethyl)-3-(trifluoromethyl)-4,6-dihydrocyclopenta[c]pyrazol-4-ol]: the IC50 against HIF-2α [1] and on HIF-2α [2] was 100 to 1000 nM each time. Also, the “Serum Shift (approximate)” value at HIF-2α [2] is 2.

For the molecule `O=S1(=O)CC(Cn2nc(C(F)(F)F)c3c2C[C@@H](F)[C@H]3O)C1` [Example 84, 3-{[(4S,5R)-5-fluoro-4-hydroxy-3-(trifluoromethyl)-1H,4H,5H,6H-cyclopenta[c]pyrazol-1-yl]methyl}-1λ^6-thietane-1,1-dione], the IC50 against HIF-2α [1] fell in the range of 100 to 1000 nM. Besides, on HIF-2α [2], the IC50 was more than 1000 nM and the “Serum Shift (approximate)” value is listed as 2.

On to `O[C@H]1c2c(C(F)(F)F)nn(CCc3cnoc3)c2CC1(F)F` [Example 75, (4S)-5,5-difluoro-1-[2-(1,2-oxazol-4-yl)ethyl]-3-(trifluoromethyl)-4,6-dihydrocyclopenta[c]pyrazol-4-ol], for which the IC50 on HIF-2α [1] is less than 100 nM. For the same molecule, at HIF-2α [2], the IC50 was more than 1000 nM and the “Serum Shift (approximate)” value was determined as 5.

With `O[C@H]1c2c(C(F)(F)F)nn([C@H]3C[C@H](COC(F)F)C3)c2CCC1(F)F` [Example 104, (4S)-1-[3-(difluoromethoxymethyl)cyclobutyl]-5,5-difluoro-3-(trifluoromethyl)-6,7-dihydro-4H-indazol-4-ol], at HIF-2α [1], the IC50 is 100 to 1000 nM. Also, at HIF-2α [2], the IC50 was more than 1000 nM and the “Serum Shift (approximate)” value stood at 20.

As for `O[C@H]1c2c(C(F)(F)F)nn(C3CCC(F)(F)C3)c2CC1(F)F` (mixture of isomers) [Example 54, (4S)-1-(3,3-difluorocyclopentyl)-5,5-difluoro-3-(trifluoromethyl)-4,6-dihydrocyclopenta[c]pyrazol-4-ol], the IC50 against HIF-2α [1] is 100 to 1000 nM; at HIF-2α [2], more than 1000 nM. Also, the “Serum Shift (approximate)” value at HIF-2α [2] is listed as 5.

On to `O[C@H]1c2c(C(F)(F)F)nn(CCCC(F)(F)F)c2CC[C@@H]1F` [Example 52, (4S,5S)-5-fluoro-1-(4,4,4-trifluorobutyl)-3-(trifluoromethyl)-4,5,6,7-tetrahydroindazol-4-ol], for which the IC50 at HIF-2α [1] is 100 to 1000 nM. On HIF-2α [2], the IC50 is more than 1000 nM and the “Serum Shift (approximate)” value is listed as 7.

As to `O[C@H]1c2c(C(F)(F)F)nn(C3COCC(F)(F)C3)c2CC1(F)F` (stereo partly drawn) [Example 85, (4S)-1-(5,5-difluorooxan-3-yl)-5,5-difluoro-3-(trifluoromethyl)-1H,4H,5H,6H-cyclopenta[c]pyrazol-4-ol], the IC50 against HIF-2α [1] lay within 100 to 1000 nM. Moreover, on HIF-2α [2], the IC50 is more than 1000 nM and the “Serum Shift (approximate)” value was 6.

In turn, `O[C@H]1c2c(C(F)(F)F)nn(CCCOC(F)(F)F)c2[C@H](F)CC1(F)F` (single isomer, unassigned) [129/130 DIAST-2] displayed an IC50 against HIF-2α [1] of 100 to 1000 nM. Moreover, on HIF-2α [2], the IC50 is more than 1000 nM and the “Serum Shift (approximate)” value came out at 17.

At HIF-2α [1], `O[C@H]1c2c(C(F)(F)F)nn([C@@H]3CCC[C@H](C(F)(F)F)C3)c2CC1(F)F` [Example 82, (4S)-5,5-difluoro-3-(trifluoromethyl)-1-[(1R,3S)-3-(trifluoromethyl)cyclohexyl]-1H,4H,5H,6H-cyclopenta[c]pyrazol-4-ol] yielded an IC50 of 100 to 1000 nM. For the same molecule, at HIF-2α [2], the IC50 is more than 1000 nM and the “Serum Shift (approximate)” value amounted to 23.

On to `O[C@H]1c2c(C(F)(F)F)nn(CCCC(F)(F)F)c2[C@H](F)C1(F)F` (single isomer, unassigned) [Example 124], for which the IC50 against HIF-2α [1] is less than 100 nM. Further, on HIF-2α [2], the IC50 was more than 1000 nM and the “Serum Shift (approximate)” value is 11.

As for `O[C@H]1c2c(C(F)(F)F)nn(-c3ccc(C(F)(F)F)cc3)c2CC1(F)F` [Example 117, (4S)-5,5-difluoro-3-(trifluoromethyl)-1-[4-(trifluoromethyl)phenyl]-4,6-dihydrocyclopenta[c]pyrazol-4-ol], the IC50 against HIF-2α [1] was less than 100 nM. Also, on HIF-2α [2], the IC50 is more than 1000 nM and the “Serum Shift (approximate)” value is recorded as more than 62.

For the molecule `O[C@H]1c2c(C(F)(F)F)nn([C@@H]3C[C@@H](F)[C@@H](F)[C@@H](F)C3)c2[C@H](F)[C@H]1F` [Example 138, (4S,5S,6S)-5,6-difluoro-1-[(3R,5S)-3,4,5-trifluorocyclohexyl]-3-(trifluoromethyl)-5,6-dihydro-4H-cyclopenta[c]pyrazol-4-ol], the IC50 on HIF-2α [1] is less than 100 nM; on HIF-2α [2], more than 1000 nM. Besides, the “Serum Shift (approximate)” value at HIF-2α [2] is reported as 9.

Turning to `O[C@H]1c2c(C(F)(F)F)nn(CCCOC(F)(F)F)c2CC[C@H]1F` [Example 120, (4S,5R)-5-fluoro-1-[3-(trifluoromethoxy)propyl]-3-(trifluoromethyl)-4,5,6,7-tetrahydroindazol-4-ol], the IC50 at HIF-2α [1] was less than 100 nM. Further, on HIF-2α [2], the IC50 was in the range of 100 to 1000 nM and the “Serum Shift (approximate)” value amounted to 4.

Turning to `O[C@H]1c2c(C(F)(F)F)nn([C@@H]3CC[C@@H](F)[C@@H](F)C3)c2[C@@H](F)C1(F)F` [Example 156, (4S,6R)-1-[(1R,3S,4R)-3,4-difluorocyclohexyl]-5,5,6-trifluoro-3-(trifluoromethyl)-4,6-dihydrocyclopenta[c]pyrazol-4-ol], at HIF-2α [1], the IC50 is less than 100 nM. Moreover, at HIF-2α [2], the IC50 fell in the range of 100 to 1000 nM and the “Serum Shift (approximate)” value was determined as 8.

Consider `C[C@H](C#N)CCn1nc(C(F)(F)F)c2c1CCC(F)(F)[C@H]2O` [Example 100, (2S)-4-[(4S)-5,5-difluoro-4-hydroxy-3-(trifluoromethyl)-6,7-dihydro-4H-indazol-1-yl]-2-methylbutanenitrile], for which the IC50 against HIF-2α [1] was in the range of 100 to 1000 nM. Further, at HIF-2α [2], the IC50 was more than 1000 nM and the “Serum Shift (approximate)” value was determined as 4.

As to `O[C@H]1c2c(C(F)(F)F)nn(C3CC4(C3)CC(F)(F)C4)c2CC1(F)F` [Example 66, (4S)-1-{6,6-difluorospiro[3.3]heptan-2-yl}-5,5-difluoro-3-(trifluoromethyl)-4,6-dihydrocyclopenta[c]pyrazol-4-ol], the IC50 against HIF-2α [1] was less than 100 nM. For the same molecule, at HIF-2α [2], the IC50 is 100 to 1000 nM and the “Serum Shift (approximate)” value was 6.

At HIF-2α [1], `O[C@H]1c2c(C(F)(F)F)nn([C@H]3C[C@H](F)C[C@H](F)C3)c2CC1(F)F` [Example 71, (4S)-1-[(3R,5S)-3,5-difluorocyclohexyl]-5,5-difluoro-3-(trifluoromethyl)-4,6-dihydrocyclopenta[c]pyrazol-4-ol] gave an IC50 of less than 100 nM. Besides, at HIF-2α [2], the IC50 is more than 1000 nM and the “Serum Shift (approximate)” value was found to be 18.

Take `O[C@H]1c2c(C(F)(F)F)nn([C@@H]3COCC(F)(F)C3)c2CC1(F)F` [Example 87, (4S)-1-[(3S)-5,5-difluorooxan-3-yl]-5,5-difluoro-3-(trifluoromethyl)-1H,4H,5H,6H-cyclopenta[c]pyrazol-4-ol]: the IC50 on HIF-2α [1] was 100 to 1000 nM; on HIF-2α [2] it was more than 1000 nM. The “Serum Shift (approximate)” value at HIF-2α [2] came out at 7.

For `O[C@H]1c2c(C(F)(F)F)nn([C@@H]3CC[C@@H](F)C[C@H]3F)c2CC1(F)F` (single isomer, unassigned) [97/98 DIAST-1], the IC50 is 100 to 1000 nM against HIF-2α [1] and more than 1000 nM at HIF-2α [2]. The “Serum Shift (approximate)” value on HIF-2α [2] was 23.

In the case of `O[C@H]1c2c(C(F)(F)F)nn([C@@H]3C[C@@H]4[C@H](C3)C4(F)F)c2CC1(F)F` (single isomer, unassigned) [125/126 DIAST-2], the results for the IC50 at HIF-2α [1] and at HIF-2α [2] were 100 to 1000 nM and more than 1000 nM, respectively. The “Serum Shift (approximate)” value at HIF-2α [2] is reported as 5.

Molecule `O[C@H]1c2c(C(F)(F)F)nn([C@H]3C[C@@]4(CC4(F)F)C3)c2CC1(F)F` [Example 64, (4S)-5,5-difluoro-1-[(3r,5r)-1,1-difluorospiro[2.3]hexan-5-yl]-3-(trifluoromethyl)-4,6-dihydrocyclopenta[c]pyrazol-4-ol] yielded an IC50 on HIF-2α [1] of less than 100 nM. At HIF-2α [2], the IC50 was more than 1000 nM and the “Serum Shift (approximate)” value is on record as 12.

Consider `O[C@H]1c2c(C(F)(F)F)nn(CCCOC(F)(F)F)c2C[C@H]1F` [Example 62, (4S,5R)-5-fluoro-1-[3-(trifluoromethoxy)propyl]-3-(trifluoromethyl)-5,6-dihydro-4H-cyclopenta[c]pyrazol-4-ol], for which the IC50 against HIF-2α [1] was in the range of 100 to 1000 nM. Also, at HIF-2α [2], the IC50 fell in the range of 100 to 1000 nM and the “Serum Shift (approximate)” value was 2.
